The subject of data set [1] is E. coli. Kind of data set: Minimum bactericidal concentration (MBC) determination by agar colony formation. In kind it is cell-based, Escherichia coli (E. coli, K12). To be noted: for MBC: Escherichia coli, 0.75 h, 45 min treatment. The method, then: (§1) Azo-QPS-C16 was effective on both […] bacteria. The ability of bacteria to proliferate after exposure to Azo-QPS-C16 was characterized by adding growth medium and measuring the optical density (OD) at 600 nm every 15 minutes in pH 4.1, 5.8, and 7.9 buffer. […] However, exposure at pH 7.9 required a much higher concentration (40 μg/mL) to inhibit cell growth. […] The pH dependence of bactericidal activity of Azo-QPS-C16 in terms of minimum bactericidal concentration (MBC) was evaluated by inoculating cultures onto a Lysogeny Broth (LB) agar plate after treating the cells with a twofold dilution series of Azo-QPS-C16.
(§2) Bacterial strains and growth conditions. Streptococcus mutans (S. mutans, UA159) and Escherichia coli (E. coli, K12) were purchased from ATCC (American Type Culture Collection, Manassas, Va., USA). Todd Hewitt Broth (THB), and Lysogeny Broth (LB) powder and agar were purchased from BD (Becton, Dickinson and Company, Franklin Lakes, N.J., USA). Planktonic cultures were inoculated from 25% (by volume) glycerol frozen stocks stored at −80° C. E. coli cultures were grown in LB at 37° C. in a shaker-incubator. S. mutans cultures were grown in THB at 37° C. with 5% (by volume) CO2 overnight.
(§3) Bacterial growth curves. Overnight cultures of E. coli and S. mutans were diluted directly into buffers with different pH values (100 mmol/L, pH 4.1 sodium acetate buffer, pH 5.8 sodium phosphate buffer, and pH 7.9 sodium phosphate buffer) to an optical density at 600 nm (OD600) of approximately 0.001.
(§4) In a 96-well plate, 2 μL of Azo-QPS-C16 at various concentrations in dimethyl sulfoxide (DMSO) were added to 98 μL of bacteria suspension per well for a final concentration ranging from a 2-fold dilution series between 40 to 1.25 μg/mL of Azo-QPS-C16. After 45 minutes of treatment at room temperature, 10 μL from each well was transferred to a new 96-well plate already containing 100 μL growth media per well to measure the growth curves. E. coli were cultured at 37° C., and the OD600 of each well was measured by a Tecan Spark microplate reader (Männedorf, Switzerland) every 15 minutes for up to 19 hours, with 30 seconds shaking before each measurement. S. mutans were grown at 37° C. with 5% CO2, and the OD600 of each well was measured periodically using a Molecular Devices (Sunnyvale, Calif.) SpectraMax M5 microplate reader. All experiments were conducted in triplicate and repeated at least three times on different days.
(§5) Minimum bactericidal concentration (MBC) determination. MBC values were determined by agar colony formation. […] 5 μL of the suspended cells from each well were spotted onto an agar plate and incubated for 48 hours to allow colony formation, and the presence or absence of bacterial growth was determined by naked eye. […]

Data set [2] relates to S. mutans. Described as above. To be noted: for MBC: Streptococcus mutans, 0.75 h, 45 min treatment. In kind it is cell-based, Streptococcus mutans (S. mutans, UA159). As for the experimental part: as §1, §2, §3, §4, §5
Data set [3] in a line: pKa. In kind it is physicochemical.
A short description of data set [4]: Solubility in water. In kind it is physicochemical.
For data set [5], the system named is E. coli. Kind of data set: Bacterial growth curves (OD600) after exposure in buffer. In kind it is cell-based, Escherichia coli (E. coli, K12). As for the experimental part:
as §1
Bacterial strains and growth conditions. […]
as §4, with “After 45 minutes of treatment at room temperature, 10 μL from each well was transferred to a new 96-well plate already containing 100 μL growth media per well to measure the growth curves.” left out, “All experiments were conducted in triplicate and repeated at least three times on different days.” left out

Data set [6] in a line: Dynamic light scattering (DLS) of pH-dependent assembly. In kind it is physicochemical. As for the experimental part:
Particles with an average hydrodynamic diameter of 51±19 nm formed in mildly basic conditions, occurring simultaneously with the appearance of the absorbance peak at 554 nm. […] One cycle corresponds to the addition of a base and an acid. In base and acid, respectively, the absorbance at 554 nm increased and then decreased, and the particles formed and disassembled.
Dynamic light scattering (DLS) was performed using a Nicomp 380 ZLS DLS system (Particle Sizing Systems Inc., Santa Barbara, Calif.). Samples were contained in disposable glass culture tubes. Prior to sample loading, the tubes were blown with nitrogen gas and filled with 0.4 mL of a dye sample. The tubes were sealed using parafilm and then centrifuged at 14,000 rpm (19,000 g) for 5 minutes to separate larger particles. Samples were placed in the instrument and allowed to attain thermal equilibrium. An autocorrelation function was acquired for 3 minutes at 173° scattering angle. A Laplace inversion-based Nicomp routine was used to find the distribution of decay rates. The decay rates are linked to the effective sphere hydrodynamic diameters by the appropriate equations. The size distribution is reported as a discrete set of diameter bins and corresponding intensity weighted fractions as probabilities assigned to diameter bins.

The record followed here is patent US11104647B2, “Multi-functional, stimuli-responsive materials, methods of preparation, methods of use, and uses thereof” (ADA Foundation, priority 2016, dated 2021).

For the compound `C=C(C)C(=O)Oc1ccc(/N=N/c2cc[n+](CCCCCCCCCCCCCCCC)cc2)cc1.[Br-]` [Azo-QPS-C16, (E)-1-hexadecyl-4-((4-(methacryloyloxy)phenyl)diazenyl)-pyridinium bromide], the MBC in data set [1] (pH 4.1 buffer) came to 2.5 µg/mL; in data set [1] (pH 5.8 buffer), 10 µg/mL; in data set [1] (pH 7.9 buffer), 40 µg/mL; in data set [2] (pH 4.1 buffer), 1.25 µg/mL; in data set [2] (pH 5.8 buffer), 5 µg/mL; in data set [2] (pH 7.9 buffer), 10 µg/mL. The “Difference in MBC between pH 4.1 and pH 7.9” value in data set [1] (more effective at pH 4.1) was determined as 16 fold. Moreover, in data set [2] (more effective in acidic conditions), the “Difference in MBC, acidic vs mildly basic conditions (pH 4.1 vs pH 7.9)” value is listed as 8 fold. Moreover, in data set [3], the pKa is 5.3. Besides, the Solubility in water result in data set [4] is listed as “limited solubility in water”. Further, the “Concentration that fully inhibited E. coli growth” value in data set [5] (exposure at pH 4.1, growth followed up to 19 hours) was determined as 2.5 µg/mL. In data set [5] (exposure at pH 7.9), the “Concentration required to inhibit cell growth” value stood at 40 µg/mL. In addition, the “Average hydrodynamic diameter of particles” value in data set [6] (mildly basic conditions) came to 51±19 nm. In data set [6] (pH 4.1 buffer), the Particle formation result is reported as “No particles were found”.

One may read the MBC as the lowest tested concentration that kills the bacteria rather than only halting them. The low end stands for more potent killing, the high end for less potent killing. As usually defined, the pKa is the negative logarithm of the acid dissociation constant. Read a low pKa as a stronger acid or weaker base.
